Test results published in US10189819B2, “Factor IXa inhibitors” (MERCK SHARP & DOHME CORP., priority 2014, dated 2019).

Target: Factor IXa (Homo sapiens (Human), UniProt P00740)
Assay: Determination of inhibitory activity against Factor IXa (cleavage of fluorescent peptide CH3SO2-D-CHG-Gly-Arg-AFC)
Format: biochemical
Conditions: read-out: FIXa IC50
Procedure: Determination of Inhibitory Activity Against Factor IXa
Formation of a clot to stem bleeding at a site of blood vessel injury involves the coordinated activity of a group of plasma proteins that initiate and propagate fibrin formation and subsequently protect fibrin from premature degradation. Factor IX is a key component of the plasma system that forms a fibrin clot at a site of vascular injury. The activity of Factor IXa is measured by monitoring the cleavage of the fluorescent peptide, CH3SO2-D-CHG-Gly-Arg-AFC.AcOH (“CHG” is cyclohexyl-glycine and “AFC” is trifluoro aminomethyl coumarin). Factor IXa cleaves the amide bond between Arg and AFC, thereby releasing the AFC fluorophore. The free AFC can be detected with a fluorescence detector at an excitation wavelength of 405 nm and emission wavelength of 510 nm.

Sequence of Factor IXa (P00740 227-461): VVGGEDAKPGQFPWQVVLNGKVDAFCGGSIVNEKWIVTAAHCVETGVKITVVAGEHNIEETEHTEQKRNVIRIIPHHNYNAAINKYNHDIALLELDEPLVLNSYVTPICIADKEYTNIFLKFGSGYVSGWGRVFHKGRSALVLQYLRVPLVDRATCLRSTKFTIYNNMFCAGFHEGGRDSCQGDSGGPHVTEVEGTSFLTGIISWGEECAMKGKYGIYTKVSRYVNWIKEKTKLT
Sequence of Factor IXa (P00740 47-191 partner): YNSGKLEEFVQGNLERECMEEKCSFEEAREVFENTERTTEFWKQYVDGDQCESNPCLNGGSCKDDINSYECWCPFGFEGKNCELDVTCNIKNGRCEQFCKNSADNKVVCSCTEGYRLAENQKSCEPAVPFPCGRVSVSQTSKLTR

Compared with `Cc1ncn(-c2cc(Cl)c(C(=O)NCC(c3ccc(=O)[nH]c3)c3nc4ccc(Cl)cc4[nH]3)c(Cl)c2)n1` (racemic) [Example 39, 2,6-Dichloro-N-(2-(6-chloro-1H-benzo[d]imidazol-2-yl)-2-(6-oxo-1,6-dihydropyridin-3-yl)ethyl)-4-(3-methyl-1H-1,2,4-triazol-1-yl)benzamide 2,2,2-trifluoroacetate], `COc1ccc(C(CNC(=O)c2c(Cl)cc(-n3cnc(C)n3)cc2Cl)c2nc3ccc(Cl)cc3[nH]2)cn1` (racemic) [Example 40, (±)-2,6-Dichloro-N-(2-(6-chloro-1H-benzo[d]imidazol-2-yl)-2-(6-methoxypyridin-3-yl)ethyl)-4-(3-methyl-1H-1,2,4-triazol-1-yl)benzamide] is 14-fold higher in IC50: 2.4 nM for the first, 32.7 nM for the second.

First: COc1cc2nc(C(CNC(=O)c3c(Cl)cc(-n4cnc(C)n4)cc3Cl)n3cc(CO)nn3)[nH]c2cc1Cl (racemic) [Example 71, (±)-2,6-Dichloro-N-(2-(6-chloro-5-methoxy-1H-benzo[d]imidazol-2-yl)-2-(4-(hydroxymethyl)-1H-1,2,3-triazol-1-yl)ethyl)-4-(3-methyl-1H-1,2,4-triazol-1-yl)benzamide]
Second: Cc1cc2nc(C(CNC(=O)c3c(Cl)cc(-n4cc(CCO)nn4)cc3Cl)c3ccccc3)[nH]c2cc1C (single isomer, unassigned) [Example 1]
The IC50 of the first is 2-fold higher: 20.5 nM for the first, 10.4 nM for the second.

First: Cc1cc2nc(C(C)(CNC(=O)c3ccc(-n4cnnc4)cc3Cl)c3ccccc3)[nH]c2cc1C (single isomer, unassigned) [Example 69]
Second: Cc1cc2nc([C@@H](CNC(=O)c3c(Cl)cc(-n4cnnn4)cc3Cl)c3ccccc3)[nH]c2cc1C [Example 2, (R)-2,6-dichloro-N-(2-(5,6-dimethyl-1H-benzo[d]imidazol-2-yl)-2-phenylethyl)-4-(1H-tetrazol-1-yl)benzamide]
The IC50 of the first is 2.1-fold higher: 55.2 nM for the first, 26.4 nM for the second.

`Cc1cc2nc(C(CNC(=O)c3c(Cl)cc(-c4ccnc(C(=O)O)c4)cc3Cl)c3ccccc3)[nH]c2cc1C` (centres unmarked) [Example 16, 4-(3,5-Dichloro-4-((2-(5,6-dimethyl-1H-benzo[d]imidazol-2-yl)-2-phenylethyl)carbamoyl)phenyl)picolinic acid] gave an IC50 of 73.6 nM.

Same assay, conditions: read-out: hFIXa IC50

Compared with `Cc1cc2nc(C(CNC(=O)c3ccc(-n4cc(CCO)nn4)cc3Cl)c3ccccc3)[nH]c2cc1C` (centres unmarked) [Example 3], `Cc1cc2nc([C@@H](CNC(=O)c3ccc(-n4cnnn4)cc3Cl)c3ccccc3)[nH]c2cc1C` [Example 12] is 3.6-fold higher in IC50: 21.9 nM for the first, 78.3 nM for the second.

Compared with `Cc1ncn(-c2cc(Cl)c(C(=O)NCC(c3ccccc3)c3nc4cc(C)c(C)cc4[nH]3)c(C(F)(F)F)c2)n1` (centres unmarked) [Example 4], `Cc1ncn(-c2cc(Cl)c(C(=O)NCC(c3ccccc3)c3nc4cc(C)c(C)cc4[nH]3)c(Cl)c2)n1` (centres unmarked) [Example 6] is 3-fold lower in IC50: 63.1 nM for the first, 20.8 nM for the second.

Compared with `Cc1cc2nc(C(CNC(=O)c3c(Cl)cc(-n4cnnc4)cc3C(F)(F)F)c3ccccc3)[nH]c2cc1C` (centres unmarked) [Example 5], `Cc1cc2nc(C(CNC(=O)c3c(Cl)cc(-n4cnnc4)cc3OC(F)(F)F)c3ccccc3)[nH]c2cc1C` (centres unmarked) [Example 14] is 1.8-fold higher in IC50: 21.8 nM for the first, 40 nM for the second. The first is the more potent here.

Compared with `Cc1cc2nc(C(CNC(=O)c3c(Cl)cc(-n4cnnc4)cc3Cl)c3ccccc3)[nH]c2cc1C` (centres unmarked) [Example 7], `Cc1cc2nc(C(CNC(=O)c3c(F)cc(-n4cnnc4)cc3Cl)c3ccccc3)[nH]c2cc1C` (centres unmarked) [Example 10] is 4.2-fold higher in IC50: 3.64 nM for the first, 15.2 nM for the second. The first is the more potent here.

`Cc1ncn(-c2cc(C)c(C(=O)NCC(c3ccccc3)c3nc4cc(C)c(C)cc4[nH]3)c(Cl)c2)n1` (centres unmarked) [Example 8] and `Cc1cc2nc(C(CNC(=O)c3c(C)cc(-n4cnnc4)cc3Cl)c3ccccc3)[nH]c2cc1C` (centres unmarked) [Example 11] are within 1.5-fold of each other in IC50: 6.99 nM for the first, 8.05 nM for the second.

First: COc1cc(-n2cnnc2)cc(Cl)c1C(=O)NCC(c1ccccc1)c1nc2cc(C)c(C)cc2[nH]1 (centres unmarked) [Example 9]
Second: COc1ncn(-c2ccc(C(=O)NCC(c3cccc(F)c3)c3nc4ccc(Cl)cc4[nH]3)c(Cl)c2)n1 (centres unmarked) [Example 13]
The IC50 of the first is 4.4-fold lower: 14.8 nM for the first, 65.8 nM for the second. The first is the more potent here.

Compound `Cc1cc(Cl)cc2[nH]c(C(CNC(=O)c3ccc(-n4cnnc4C)cc3Cl)c3cccc(F)c3)nc12` (centres unmarked) [Example 15] has an IC50 of 4.9 nM.
